What was measured:
[1] = tested on: BGMK; type: cell-based, primate
[2] = tested on: RK-13; type: cell-based, rabbit
[3] = tested on: RL5; type: cell-based, rabbit

Measured: effect of rapamycin on replication of myxoma virus (virus titre by foci formation on BGMK cells)

CO[C@H]1C[C@@H]2CC[C@@H](C)[C@@](O)(O2)C(=O)C(=O)N2CCCC[C@H]2C(=O)O[C@H]([C@H](C)C[C@@H]2CC[C@@H](O)[C@H](OC)C2)CC(=O)[C@H](C)/C=C(\C)[C@@H](O)[C@@H](OC)C(=O)[C@H](C)C[C@H](C)/C=C/C=C/C=C/1C [rapamycin]
no effect: all assays above

Source: patent publication US9987315B2 (priority 2005, dated 2018)
